In the NIST ThermoML archive (doi:10.1021/je100912t):
Numbers after ± are expanded uncertainties.

What was measured:
[1] = refractive index (Na D-line) (dimensionless); settings: 298.15 K; 101.33 kPa; Liquid; Standard Abbe refractometry
[2] = Liquid; for mass density: 298.15 K, 101.33 kPa, Pycnometric method; for vapor or sublimation pressure: Ebulliometric method (Recirculating still)

Row | refractive index [1] | mass density [2] [kg/m3] | vapor or sublimation pressure ([2]; 370.27 K) [kPa] | vapor or sublimation pressure ([2]; 321.18 K) [kPa] | vapor or sublimation pressure ([2]; 412.91 K) [kPa] | Compound
1 | 1.3856 ± 0.0004 | 803.62 ± 0.71 | 101.33 ± 1 | – | – | CCCO [propan-1-ol]
2 | 1.3634 ± 0.0004 | 797.21 ± 0.7 | – | 101.33 ± 1 | – | CCC=O [propanal]
3 | 1.3858 ± 0.0004 | 992.86 ± 0.88 | – | – | 101.33 ± 1 | CCC(=O)O [propanoic acid]
